Experimental data as given in US20230128815A1, “ADJUVANT COMPOUNDS, SALT FORMS, AND FORMULATIONS” (ADJUVANCE TECHNOLOGIES, INC., priority 2020, published 2023).
Counter-ions that a name gives are not always drawn.

Tests used:
Solubility in water = assay type: physicochemical
[1] = TQL-1055 choline salt and free acid ethanol solubility; assay type: physicochemical; conditions: 100% ethanol, 37 °C, organic solvent or mixture, thermodynamic from solid, solubility in 100% ethanol, vortex mixed, sonicated at 37° C. for five minutes
Experimental: An experiment was conducted to determine the solubility of TQL-1055 choline salt and TQL-1055 free acid in ethanol. Several samples were prepared, each containing either TQL-1055 choline salt or TQL-1055 free acid dissolved in a 100% ethanol solution at a concentration of 4 mg/ml. All samples were mixed using a vortex mixer and subsequently sonicated at 37° C. for five minutes. Neither the TQL-1055 choline salt nor the TQL-1055 free acid were fully dissolved at 4 mg/ml. Samples were then diluted to 3.5 mg/ml, 3 mg/ml, 2.5 mg/ml, or 2 mg/ml and re-sonicated. As depicted in FIGS. 16-18, TQL-1055 choline salt was completely dissolved at a concentration of 3 mg/ml, whereas TQL-1055 free acid was completely dissolved at a concentration of 2 mg/ml. Accordingly, TQL-1055 choline salt is soluble in 100% ethanol up to concentrations of approximately 3 mg/ml, whereas TQL-1055 free acid is soluble in 100% ethanol up to concentrations of approximately 2 mg/ml.

[2] = compared to QS-21; cited from earlier work
[3] = Dynamic vapor sorption (DVS) / humidity-dependent form stability; assay type: physicochemical
Experimental: Automated vapor sorption (VS) data were collected on a Surface Measurement System DVS Intrinsic instrument. Samples were not dried prior to analysis. Sorption and desorption data were collected over a range from 5% to 95% RH at 10% RH increments under a nitrogen purge. The equilibrium criterion used for analysis was less than 0.0100% weight change in 5 minutes with a maximum equilibration time of 3 hours. Data were not corrected for the initial moisture content of the samples.

[4] = from 5 to 65% relative humidity

Row | SMILES | solubility in water at physiological pH (Solubility in water; physiological pH) | solubility at 5 min [1] | efficacy as compared to the natural product [2] | toxicity as compared to the natural product [2] | solubility (Solubility in water) | DVS additional weight gain ([3]; above 65% up to 95% relative humidity) | DVS weight gain [3, 4] | water gain equivalent to DVS weight gain [3, 4] | DVS weight loss on desorption ([3]; from 95 to 5% relative humidity) | relative humidity above which the form converts to higher hydrate Choline Material B ([3]; relative humidity)
1 | CC1O[C@@H](OC2C(O)[C@@H](NC(=O)CCCCCCCCCCC(=O)O)C(CO)O[C@H]2OC(=O)[C@]23CCC(C)(C)CC2C2=CCC4C5(C)CC[C@H](O)[C@](C)(C=O)[C@@H]5CC[C@]4(C)[C@]2(C)CC3O)C(O)C(O)[C@H]1O[C@@H]1OC[C@@H](O)C(O)C1O (some centres unmarked) [Compound I-4] | poor solubility | ~2000 µg/mL | improved efficacy | reduced toxicity | – | – | – | – | – | –
2 | CC1O[C@@H](OC2C(O)[C@@H](NC(=O)CCCCCCCCCCC(=O)O)C(CO)O[C@H]2OC(=O)[C@]23CCC(C)(C)CC2C2=CCC4C5(C)CC[C@H](O)C(C)(C=O)C5CCC4(C)C2(C)CC3O)C(O)C(O)[C@H]1O[C@@H]1OC[C@@H](O)C(O)C1O (some centres unmarked) [Form A] | – | – | – | – | > 6000 µg/mL | 14% | 5% | ~3.5 mol/mol | 19% | above 65%
3 | CC1O[C@@H](OC2C(O)[C@@H](NC(=O)CCCCCCCCCCC(=O)O)C(CO)O[C@H]2OC(=O)[C@]23CCC(C)(C)CC2C2=CCC4C5(C)CC[C@H](O)C(C)(C=O)C5CCC4(C)C2(C)CC3O)C(O)C(O)[C@H]1O[C@@H]1OC[C@@H](O)C(O)C1O (some centres unmarked) [TQL-1055 choline salt] | – | ~3000 µg/mL | – | – | – | – | – | – | – | –
